{
  "source": "patent US11208412B2",
  "about": "(DAEGU-GYEONGBUK MEDICAL INNOVATION FOUNDATION, priority 2017, dated 2021)",
  "assay_in_all_cases": "Kinase selectivity, DiscoverX scanMAX Kinase assay panel (% control)",
  "type_in_all_cases": "binding",
  "key": {"[1]": {"biological_target": "T1, kinases of the scanMAX Kinase assay panel (Homo sapiens, UniProt Q92918)", "T1 construct": "purchased DiscoverX Co. (contract measurement) scanMAX Kinase assay panel", "T1 sequence (Q92918 whole entry)": "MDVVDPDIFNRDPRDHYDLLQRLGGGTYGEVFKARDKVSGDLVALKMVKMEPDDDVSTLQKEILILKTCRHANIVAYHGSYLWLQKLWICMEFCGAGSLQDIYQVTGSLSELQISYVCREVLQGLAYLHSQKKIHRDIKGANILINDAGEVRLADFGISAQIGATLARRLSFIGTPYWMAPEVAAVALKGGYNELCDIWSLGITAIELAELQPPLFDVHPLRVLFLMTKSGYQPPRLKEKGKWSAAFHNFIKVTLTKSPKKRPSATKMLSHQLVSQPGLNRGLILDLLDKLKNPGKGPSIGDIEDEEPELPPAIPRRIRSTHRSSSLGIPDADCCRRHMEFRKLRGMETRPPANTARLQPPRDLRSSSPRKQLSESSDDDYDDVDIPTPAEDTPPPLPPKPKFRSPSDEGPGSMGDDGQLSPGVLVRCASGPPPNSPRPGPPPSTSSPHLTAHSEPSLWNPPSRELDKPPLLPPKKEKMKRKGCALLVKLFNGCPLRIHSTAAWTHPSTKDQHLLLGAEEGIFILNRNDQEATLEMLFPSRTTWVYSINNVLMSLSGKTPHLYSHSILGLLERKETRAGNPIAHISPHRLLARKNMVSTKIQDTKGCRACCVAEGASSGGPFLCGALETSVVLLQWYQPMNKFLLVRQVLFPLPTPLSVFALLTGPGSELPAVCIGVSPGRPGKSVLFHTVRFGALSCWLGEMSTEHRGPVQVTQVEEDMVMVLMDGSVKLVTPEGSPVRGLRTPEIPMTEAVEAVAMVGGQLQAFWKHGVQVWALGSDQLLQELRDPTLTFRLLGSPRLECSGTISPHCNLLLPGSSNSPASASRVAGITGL", "settings": "HPK1; 1 uM", "outline": "(§1)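 A 1 uM DMSO solution of compound was applied across the panel kinases, and results were expressed as % control relative to DMSO (100%) and a positive control (0%).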"}, "[2]": {"biological_target": "T2, kinases of the scanMAX Kinase assay panel (Homo sapiens, UniProt P33981)", "T2 construct": "purchased DiscoverX Co. (contract measurement) scanMAX Kinase assay panel", "T2 sequence (P33981 1-857)": "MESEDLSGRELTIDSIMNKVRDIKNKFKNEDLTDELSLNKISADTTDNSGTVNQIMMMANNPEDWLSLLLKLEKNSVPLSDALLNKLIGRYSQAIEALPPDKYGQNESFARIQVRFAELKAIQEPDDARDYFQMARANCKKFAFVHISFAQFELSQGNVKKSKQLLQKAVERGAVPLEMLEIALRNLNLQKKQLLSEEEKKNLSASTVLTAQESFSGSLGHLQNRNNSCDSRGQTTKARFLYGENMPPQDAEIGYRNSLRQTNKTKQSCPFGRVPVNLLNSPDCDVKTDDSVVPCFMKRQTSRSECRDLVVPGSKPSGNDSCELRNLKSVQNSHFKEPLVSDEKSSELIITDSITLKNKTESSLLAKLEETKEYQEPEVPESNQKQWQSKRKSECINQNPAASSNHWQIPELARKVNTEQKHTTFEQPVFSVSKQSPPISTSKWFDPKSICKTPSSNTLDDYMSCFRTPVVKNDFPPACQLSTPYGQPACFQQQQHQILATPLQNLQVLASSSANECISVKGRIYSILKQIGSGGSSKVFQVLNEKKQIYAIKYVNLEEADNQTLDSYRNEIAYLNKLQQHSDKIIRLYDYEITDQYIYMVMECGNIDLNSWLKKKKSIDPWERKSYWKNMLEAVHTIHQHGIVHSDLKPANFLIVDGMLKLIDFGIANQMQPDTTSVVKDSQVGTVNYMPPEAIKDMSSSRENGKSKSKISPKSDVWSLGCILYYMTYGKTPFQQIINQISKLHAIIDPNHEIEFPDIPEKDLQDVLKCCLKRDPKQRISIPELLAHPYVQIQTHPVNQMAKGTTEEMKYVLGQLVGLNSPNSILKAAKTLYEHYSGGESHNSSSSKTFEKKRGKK", "settings": "kinase TTK; 1 uM in DMSO", "outline": "as §1"}, "[3]": {"biological_target": "T3, kinases of the scanMAX Kinase assay panel (Homo sapiens, UniProt Q6P2M8)", "T3 construct": "purchased DiscoverX Co. (contract measurement) scanMAX Kinase assay panel", "T3 sequence (Q6P2M8 whole entry)": "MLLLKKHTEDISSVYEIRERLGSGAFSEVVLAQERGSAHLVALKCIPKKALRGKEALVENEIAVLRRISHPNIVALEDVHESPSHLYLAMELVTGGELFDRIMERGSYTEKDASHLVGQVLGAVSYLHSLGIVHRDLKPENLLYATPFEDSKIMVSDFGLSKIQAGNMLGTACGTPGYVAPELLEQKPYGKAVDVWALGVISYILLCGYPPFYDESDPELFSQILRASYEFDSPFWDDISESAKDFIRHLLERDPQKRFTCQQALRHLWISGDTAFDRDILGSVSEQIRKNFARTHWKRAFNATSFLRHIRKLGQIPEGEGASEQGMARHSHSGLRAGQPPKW", "settings": "CAMK1B; 1 uM", "outline": "as §1"}, "[4]": {"biological_target": "T4, kinases of the scanMAX Kinase assay panel (Homo sapiens, UniProt P41743)", "T4 construct": "purchased DiscoverX Co. (contract measurement) scanMAX Kinase assay panel", "T4 sequence (P41743 1-596)": "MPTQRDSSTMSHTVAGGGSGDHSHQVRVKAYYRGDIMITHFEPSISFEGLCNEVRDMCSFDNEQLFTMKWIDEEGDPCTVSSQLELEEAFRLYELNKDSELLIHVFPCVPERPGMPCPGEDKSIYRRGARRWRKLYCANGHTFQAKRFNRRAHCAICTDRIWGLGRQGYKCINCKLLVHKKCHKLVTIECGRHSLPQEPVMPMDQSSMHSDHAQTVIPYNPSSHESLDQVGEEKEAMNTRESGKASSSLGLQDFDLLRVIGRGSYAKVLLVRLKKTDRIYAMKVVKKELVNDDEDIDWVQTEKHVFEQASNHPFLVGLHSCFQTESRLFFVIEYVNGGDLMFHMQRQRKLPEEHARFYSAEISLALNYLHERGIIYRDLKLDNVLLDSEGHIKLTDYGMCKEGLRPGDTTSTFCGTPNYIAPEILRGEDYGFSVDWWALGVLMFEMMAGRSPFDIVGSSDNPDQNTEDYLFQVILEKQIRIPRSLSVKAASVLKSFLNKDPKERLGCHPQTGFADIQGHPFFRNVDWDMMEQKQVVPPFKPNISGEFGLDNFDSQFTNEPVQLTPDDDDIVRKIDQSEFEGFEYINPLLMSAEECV", "settings": "PRKCI; 1 uM", "outline": "as §1"}, "[5]": {"biological_target": "T5, kinases of the scanMAX Kinase assay panel (Homo sapiens, UniProt Q9UKE5)", "T5 construct": "purchased DiscoverX Co. (contract measurement) scanMAX Kinase assay panel", "T5 sequence (Q9UKE5 whole entry)": "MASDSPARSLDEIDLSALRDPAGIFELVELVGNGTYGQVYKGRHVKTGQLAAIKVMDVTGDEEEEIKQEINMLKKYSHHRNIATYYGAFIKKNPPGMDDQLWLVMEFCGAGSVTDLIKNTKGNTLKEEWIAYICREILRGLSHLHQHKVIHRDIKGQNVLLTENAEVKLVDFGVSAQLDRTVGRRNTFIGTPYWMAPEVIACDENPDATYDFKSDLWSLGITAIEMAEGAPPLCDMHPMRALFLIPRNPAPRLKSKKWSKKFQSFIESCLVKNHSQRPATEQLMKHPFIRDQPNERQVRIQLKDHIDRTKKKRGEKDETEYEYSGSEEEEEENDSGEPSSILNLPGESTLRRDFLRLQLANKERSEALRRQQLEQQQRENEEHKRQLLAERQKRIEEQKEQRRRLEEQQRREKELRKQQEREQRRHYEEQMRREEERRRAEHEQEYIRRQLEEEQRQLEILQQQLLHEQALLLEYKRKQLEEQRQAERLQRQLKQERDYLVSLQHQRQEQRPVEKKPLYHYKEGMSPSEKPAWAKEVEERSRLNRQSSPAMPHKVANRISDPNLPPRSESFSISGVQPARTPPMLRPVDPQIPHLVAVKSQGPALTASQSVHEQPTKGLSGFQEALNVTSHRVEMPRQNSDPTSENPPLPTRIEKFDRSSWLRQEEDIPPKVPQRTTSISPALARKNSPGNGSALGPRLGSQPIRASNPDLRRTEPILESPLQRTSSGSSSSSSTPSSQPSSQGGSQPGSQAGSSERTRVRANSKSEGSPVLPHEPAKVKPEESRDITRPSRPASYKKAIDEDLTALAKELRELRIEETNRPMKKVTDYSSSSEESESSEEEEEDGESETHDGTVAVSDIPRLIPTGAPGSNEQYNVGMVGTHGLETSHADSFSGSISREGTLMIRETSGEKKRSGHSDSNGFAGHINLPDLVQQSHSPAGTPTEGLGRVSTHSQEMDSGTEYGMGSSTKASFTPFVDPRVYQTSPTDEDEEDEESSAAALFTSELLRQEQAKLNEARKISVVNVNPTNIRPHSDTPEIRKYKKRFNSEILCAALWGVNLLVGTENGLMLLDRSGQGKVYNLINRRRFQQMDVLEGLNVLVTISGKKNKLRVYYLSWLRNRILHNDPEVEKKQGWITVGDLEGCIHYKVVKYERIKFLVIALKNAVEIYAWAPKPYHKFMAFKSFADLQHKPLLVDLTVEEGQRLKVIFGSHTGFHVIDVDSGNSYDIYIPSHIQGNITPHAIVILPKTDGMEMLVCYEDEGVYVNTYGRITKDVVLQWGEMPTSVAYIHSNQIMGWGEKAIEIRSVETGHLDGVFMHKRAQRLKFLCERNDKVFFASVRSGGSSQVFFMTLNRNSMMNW", "settings": "kinase TNIK; 1 uM in DMSO", "outline": "as §1"}},
  "data": [
    {"smiles": "CNc1nc(Nc2ccc(C(=O)N3CCOCC3)cc2OC)nc2[nH]cc(C#N)c12", "note": "[Example 1, 2-((2-methoxy-4-(morpholine-4-carbonyl)phenyl)amino)-4-(methylamino)-7H-pyrrolo[2,3-d]pyrimidine-5-carbonitrile]", "values": [
      {"measurement": "remaining binding at 1 µM", "setting": "[1]", "value": 79, "unit": "%"},
      {"measurement": "remaining binding at 1 µM", "setting": "[2]", "value": 12, "unit": "%"},
      {"measurement": "remaining binding at 1 µM", "setting": "[3]", "value": 45, "unit": "%"},
      {"measurement": "remaining binding at 1 µM", "setting": "[4]", "value": 96, "unit": "%"},
      {"measurement": "remaining binding at 1 µM", "setting": "[5]", "value": 95, "unit": "%"}
    ]},
    {"smiles": "CC1(Nc2nc(Nc3cnn([C@H]4CCN(C5COC5)C[C@@H]4F)c3Cl)nc3[nH]cc(C#N)c23)CC1", "note": "[Example 52, 2-((5-chloro-1-((3S,4S)-3-fluoro-1-(oxetane-3-yl)piperidine-4-yl)-1H-pyrazole-4-yl)amino)((1-methylcyclopropyl)amino)-7H-pyrrolo[2,3-d]pyrimidine-5-carbonitrile]", "values": [
      {"measurement": "remaining binding at 1 µM", "setting": "[1]", "value": 4.3, "unit": "%"},
      {"measurement": "remaining binding at 1 µM", "setting": "[2]", "value": 0.25, "unit": "%"},
      {"measurement": "remaining binding at 1 µM", "setting": "[3]", "value": 64, "unit": "%"},
      {"measurement": "remaining binding at 1 µM", "setting": "[4]", "value": 89, "unit": "%"},
      {"measurement": "remaining binding at 1 µM", "setting": "[5]", "value": 3.5, "unit": "%"}
    ]},
    {"smiles": "CCNc1nc(Nc2ccc(C(=O)N3CCC(N4CCOCC4)CC3)cc2OC)nc2[nH]cc(C(F)(F)F)c12", "note": "[Example 104, (4-((4-(ethylamino)-5-(trifluoromethyl)-7H-pyrrolo[2,3-d]pyrimidine-2-yl)amino)-3-methoxyphenyl)(4-morpholinopiperidine-1-yl)methanone]", "values": [
      {"measurement": "remaining binding at 1 µM", "setting": "[1]", "value": 100, "unit": "%"},
      {"measurement": "remaining binding at 1 µM", "setting": "[2]", "value": 1.4, "unit": "%"},
      {"measurement": "remaining binding at 1 µM", "setting": "[3]", "value": 21, "unit": "%"},
      {"measurement": "remaining binding at 1 µM", "setting": "[4]", "value": 53, "unit": "%"},
      {"measurement": "remaining binding at 1 µM", "setting": "[5]", "value": 83, "unit": "%"}
    ]}
  ]
}
